Measured values from US20230124862A1, “BISMUTH THIOL COMPOUNDS AND COMPOSITIONS AND METHODS OF TREATING MICROBIAL CO-INFECTIONS” (Microbion Corporation, priority 2020, published 2023).
Where two headings read alike, the source gives them in different places.

How the values were obtained:
Pseudomonas aeruginosa [1] = conditions: P. aeruginosa ATCC 27853; CLSI established QC range; cited from earlier work
Enterobacteriaceae [2] = experiment: Broth microdilution MIC (Example 11); assay type: cell-based, E. coli, K. pneumoniae, Enterobacter cloacae
Pseudomonas aeruginosa [3] = experiment: Broth microdilution MIC (Example 12); assay type: cell-based
Escherichia coli [4] = experiment: Broth microdilution MIC (Example 12); assay type: cell-based
[5] = tested on: P. aeruginosa and A. baumannii; conditions: P. aeruginosa (MMX 103), QC; cited from earlier work
Klebsiella pneumoniae = experiment: Broth microdilution MIC (Example 12); assay type: cell-based
Escherichia coli [6] = conditions: E. coli ATCC 25922; CLSI established QC range; cited from earlier work
Acinetobacter baumannii = experiment: Broth microdilution MIC (Example 12); assay type: cell-based
[7] = tested on: Gram-positive aerobic bacteria (S. aureus, MRSA, CA-MRSA); experiment: MIC90 against 150 clinical isolates of Gram-positive aerobic bacteria; assay type: cell-based; conditions: S. aureus (50 isolates)
Enterobacteriaceae [8] = conditions: E. coli (MMX 102), QC; cited from earlier work
[9] = tested on: Burkholderia cepacia complex; assay type: cell-based, Burkholderia spp.; conditions: initial MIC testing
P. aeruginosa [10] = conditions: P. aeruginosa isolate 103; CLSI QC range in parenthesis; cited from earlier work
[11] = tested on: Burkholderia cepacia complex; experiment: Checkerboard FIC/FICI assay; assay type: cell-based, Burkholderia spp.; conditions: during FIC testing
P. aeruginosa [12] = experiment: Checkerboard FIC/FICI assay; assay type: cell-based, Pseudomonas aeruginosa; conditions: during FIC testing
P. aeruginosa [13] = experiment: Broth microdilution MIC (Example 10); assay type: cell-based, Pseudomonas aeruginosa; conditions: initial MIC testing
P. aeruginosa [14] = conditions: P. aeruginosa isolate 103; CLSI QC range in parenthesis; cited from earlier work; remark: listed apart in the source

CC(C)(O/N=C(\C(=O)N[C@@H]1C(=O)N2C(C(=O)[O-])=C(C[n+]3ccccc3)CS[C@H]12)c1csc(N)n1)C(=O)O [CAZ]
0.25 mg/L: MIC (Escherichia coli [4]; E. coli ATCC 25922, ATCC QC organism (Table 102))
>32 mg/L: MIC (Enterobacteriaceae [2]; E. cloacae (MMX 5981), NDM-1, LVX-R, MEM-R, CAZ-R, GEN-R) | MIC (Enterobacteriaceae [2]; E. coli (MMX 5980), NDM-1, LVX-R, MEM-R, CAZ-R, GEN-R) | MIC (Enterobacteriaceae [2]; K. pneumoniae (MMX 4622), KPC-2, MEM-R, CAZ-R) | MIC (Enterobacteriaceae [2]; K. pneumoniae (MMX 4623), KPC-2, MEM-R, CAZ-R, GEN-R) | MIC (Enterobacteriaceae [2]; K. pneumoniae (MMX 4653), KPC-3, LVX-R, MEM-R, CAZ-R) | MIC (Enterobacteriaceae [2]; K. pneumoniae (MMX 4683), KPC-2, LVX-R, MEM-R, CAZ-R) | MIC (Enterobacteriaceae [2]; K. pneumoniae (MMX 4685), ESBL, LVX-R, MEM-R, CAZ-R) | MIC (Enterobacteriaceae [2]; K. pneumoniae (MMX 4694), KPC-3, LVX-R, MEM-R, CAZ-R) | MIC (Enterobacteriaceae [2]; K. pneumoniae (MMX 5979), NDM-1, LVX-R, MEM-R, CAZ-R, GEN-R)
>64 mg/L: MIC (Pseudomonas aeruginosa [3]; P. aeruginosa CDC 231, KPC/OXA) | MIC (Pseudomonas aeruginosa [3]; P. aeruginosa CDC 241, IMP/OXA) | MIC (Pseudomonas aeruginosa [3]; P. aeruginosa CDC 246, NDM/OXA) | MIC (Pseudomonas aeruginosa [3]; P. aeruginosa CDC 250, NDM/OXA) | MIC (Pseudomonas aeruginosa [3]; P. aeruginosa CDC 439, IMP) | MIC (Pseudomonas aeruginosa [3]; P. aeruginosa CDC 457, VIM) | MIC (Escherichia coli [4]; E. coli ATCC BAA-2471, NDM) | MIC (Escherichia coli [4]; E. coli CDC 114, ESBL/KPC) | MIC (Escherichia coli [4]; E. coli CDC 118, ESBL/NDM) | MIC (Escherichia coli [4]; E. coli CDC 435, NDM) | MIC (Escherichia coli [4]; E. coli CDC 503, ESBL/NDM) | MIC (Escherichia coli [4]; E. coli MMX 5755, ESBL) | MIC (Escherichia coli [4]; E. coli MMX 5756, ESBL) | MIC (Klebsiella pneumoniae; K. pneumoniae ATCC BAA-1705, ATCC QC organism (Table 102)) | MIC (Klebsiella pneumoniae; K. pneumoniae ATCC BAA-1705, ESBL/KPC) | MIC (Klebsiella pneumoniae; K. pneumoniae CDC 112, KPC) | MIC (Klebsiella pneumoniae; K. pneumoniae CDC 113, ESBL/KPC) | MIC (Klebsiella pneumoniae; K. pneumoniae CDC 115, ESBL/KPC) | MIC (Klebsiella pneumoniae; K. pneumoniae CDC 120, ESBL/KPC) | MIC (Klebsiella pneumoniae; K. pneumoniae CDC 129, ESBL/KPC) | MIC (Klebsiella pneumoniae; K. pneumoniae CDC 135, ESBL/VIM) | MIC (Klebsiella pneumoniae; K. pneumoniae CDC 138, ESBL/NDM) | MIC (Klebsiella pneumoniae; K. pneumoniae CDC 158, ESBL/NDM/OXA) | MIC (Acinetobacter baumannii; A. baumannii CDC 274, ESBL/OXA) | MIC (Acinetobacter baumannii; A. baumannii CDC 275, ESBL/OXA) | MIC (Acinetobacter baumannii; A. baumannii CDC 277, ESBL/OXA) | MIC (Acinetobacter baumannii; A. baumannii CDC 311, OXA) | MIC (Acinetobacter baumannii; A. baumannii CDC 312, OXA) | MIC (Acinetobacter baumannii; A. baumannii CDC 313, ESBL/OXA) | MIC (Acinetobacter baumannii; A. baumannii NCTC 13304, OXA) | MIC90 ([7]; CA-MRSA) | MIC90 ([7]; MRSA)
4 mg/L: MIC (Klebsiella pneumoniae; K. pneumoniae CDC 126, ESBL/KPC) | MIC (Klebsiella pneumoniae; K. pneumoniae MMX 9029, ESBL)
(1-4) μg/mL: QC range of MIC (Pseudomonas aeruginosa [1])
32 mg/L: MIC (Enterobacteriaceae [2]; E. coli (MMX 8423), ESBL, LVX-R, CAZ-R, GEN-R) | MIC (Pseudomonas aeruginosa [3]; P. aeruginosa CDC 444, VIM) | MIC (Pseudomonas aeruginosa [3]; P. aeruginosa CDC 518, KPC/AmpC) | MIC (Escherichia coli [4]; E. coli MMX 5745, KPC)
16 mg/L: MIC (Enterobacteriaceae [2]; E. coli (MMX 8424), ESBL, CAZ-R) | MIC (Enterobacteriaceae [2]; E. coli (MMX 8425), ESBL, LVX-R, CAZ-R, GEN-R) | MIC (Escherichia coli [4]; E. coli MMX 5758, ESBL) | MIC90 ([7]; MSSA)
0.12 mg/L: MIC (Enterobacteriaceae [2]; E. coli (MMX 102), QC) | MIC (Escherichia coli [4]; E. coli ATCC 35218, ATCC QC organism (Table 102)) | MIC (Escherichia coli [4]; E. coli ATCC 35218, ESBL)
2 mg/L: MIC (Pseudomonas aeruginosa [3]; P. aeruginosa ATCC 27853, ATCC QC organism (Table 102))
8 mg/L: MIC (Enterobacteriaceae [2]; K. pneumoniae (MMX 4684), ESBL, MEM-R)
64 mg/L: MIC (Pseudomonas aeruginosa [3]; P. aeruginosa CDC 230, VIM/OXA) | MIC (Pseudomonas aeruginosa [3]; P. aeruginosa CDC 356, KPC) | MIC (Pseudomonas aeruginosa [3]; P. aeruginosa CDC 516, KPC/AmpC) | MIC (Escherichia coli [4]; E. coli CDC 451, KPC) | MIC (Acinetobacter baumannii; A. baumannii CDC 273, ESBL/OXA) | MIC (Acinetobacter baumannii; A. baumannii CDC 284, ESBL/OXA) | MIC (Acinetobacter baumannii; A. baumannii CDC 307, OXA) | MIC (Acinetobacter baumannii; A. baumannii CDC 308, ESBL/OXA)
(1.4): CLSI Quality Control Range (MIC) [5]
(0.06-0.5) μg/mL: QC range of MIC (Escherichia coli [6]) | CLSI Quality Control Range (MIC) (Enterobacteriaceae [8])

NC[C@H]1O[C@H](O[C@H]2[C@H](O)[C@@H](O[C@H]3O[C@H](CO)[C@@H](O)[C@H](N)[C@H]3O)[C@H](N)C[C@@H]2N)[C@H](N)C[C@@H]1O [TOB]
256 mg/L: MIC ([9]; B. cenocepacia isolate 0813 (CPI-I)) | MIC ([11]; B. cenocepacia isolate 0813)
64 mg/L: MIC ([9]; B. cenocepacia isolate 0548 (CIP-R)) | MIC ([9]; B. cepacia isolate 0546) | MIC ([9]; B. cepacia isolate 1793) | MIC ([9]; B. cepacia isolate 1794) | MIC ([9]; B. multivorans isolate 1791) | MIC ([9]; B. multivorans isolate 5665 (CIP-I))
>256 mg/L: MIC (P. aeruginosa [13]; P. aeruginosa isolate 1553 (TOB-R, AMK-R, CIP-R)) | MIC (P. aeruginosa [13]; P. aeruginosa isolate 8797 (MEM-R, TOB-R, AMK-R, CIP-R, AZT-R, COL-R))
16 mg/L: MIC ([9]; B. multivorans isolate 8952 (CIP-I)) | MIC ([11]; B. cepacia isolate 1793) | MIC (P. aeruginosa [12]; isolate 8798) | MIC (P. aeruginosa [13]; P. aeruginosa isolate 1497 (TOB-R AMK-R, CIP-I, AZT-R, COL-R))
128 mg/L: MIC (P. aeruginosa [12]; isolate 6322) | MIC (P. aeruginosa [12]; isolate 6977) | MIC (P. aeruginosa [13]; P. aeruginosa isolate 6322 (MEM-R, TOB-R, AMK-R, CIP-R, AZT-R)) | MIC (P. aeruginosa [13]; P. aeruginosa isolate 6977 (MEM-I, TOB-R, CIP-R, AZT-I))
32 mg/L: MIC ([11]; B. cenocepacia isolate 0548) | MIC ([11]; B. cepacia isolate 0546) | MIC (P. aeruginosa [13]; P. aeruginosa isolate 1530 (TOB-R, AMK-R, CIP-R)) | MIC (P. aeruginosa [13]; P. aeruginosa isolate 7754 (MEM-R, TOB-R, CIP-R, AZT-I)) | MIC (P. aeruginosa [13]; P. aeruginosa isolate 8798 (MEM-R, TOB-R, AMK-R, CIP-R, AZT-R, COL-R))
(0.25-1) μg/mL: CLSI QC range of MIC (P. aeruginosa [10]) | CLSI QC range of MIC (P. aeruginosa [14])
0.5 mg/L: MIC (P. aeruginosa [12]; isolate 7745) | MIC (P. aeruginosa [12]; isolate 9108) | MIC (P. aeruginosa [13]; P. aeruginosa isolate 7745 (MEM-R, CIP-R, AZT-R)) | MIC (P. aeruginosa [13]; P. aeruginosa isolate 7871 (MEM-R, AZT-I)) | MIC (P. aeruginosa [13]; P. aeruginosa isolate 7874) | MIC (P. aeruginosa [13]; P. aeruginosa isolate 9108 (CIP-R, AZT-I))
8 mg/L: MIC ([9]; B. cepacia isolate 9040)
1 mg/L: MIC (P. aeruginosa [12]; isolate 103 (ATCC 25922), each agent tested alone for QC, one replicate) | MIC (P. aeruginosa [13]; P. aeruginosa isolate 103, QC strain) | MIC (P. aeruginosa [13]; P. aeruginosa isolate 7762 (MEM-I, CIP-I)) | MIC (P. aeruginosa [13]; P. aeruginosa isolate 7886 (MEM-R, CIP-R, AZT-R))
